The term IC50 denotes the concentration that gives 50% inhibition.

From patent US12421254B2, “KRAS modulators and uses thereof” (Quanta Therapeutics, Inc., priority 2023, dated 2025) come the findings set out here.

Molecules are shown by their SMILES.

The target of assay [1] is GST-tagged KRAS-G12D (2-169) (Homo sapiens, UniProt P01116, G12D). As to the kind of experiment: Nucleotide exchange assay (NEA), SOS-mediated, HTRF, KRAS G12D. The format is biochemical. The following applies: Table 4; IC50 extracted at 30 min; 20 nM SOScat; read-out: NEA G12D IC50. The essentials:
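Compound preincubated 1 h at RT with 0.25 nM GST-KRAS-G12D (2-169) and anti-GST Tb donor, then 20 nM SOS1cat (564-1049) and 150 nM GTP-DY-647P1 added; pH 7.3 HEPES buffer with MgCl2 and DTT. HTRF monitored at RT; % inhibition versus DMSO and no-SOS blank, 4-parameter IC50 taken at 30 min.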

The target in assay [2] is GST-tagged KRAS-G12V (2-169) (Homo sapiens, UniProt P01116, G12V). As to the kind of experiment: Nucleotide exchange assay (NEA), SOS-mediated, HTRF, KRAS G12V. The following applies: Table 4; IC50 extracted at 90 min; 80 nM SOS. The format is biochemical. A digest of the protocol: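 GST-KRAS-G12V (2-169), 0.25 nM, pre-incubated 1 h at RT with compound, then SOS1cat (564-1049) 80 nM and GTP-DY-647P1 150 nM added in HEPES pH 7.3 buffer with MgCl2 and DTT. HTRF via anti-GST Tb cryptate read over 90 min; IC50 from 4-parameter fit at 90 min, blanked to no-SOS reactions.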
Background: In TR-FRET formats the signal depends on donor and acceptor labels being close together.

Sequence of GST-tagged KRAS-G12V (2-169) (P01116 2-169 isoform P01116-2 G12V): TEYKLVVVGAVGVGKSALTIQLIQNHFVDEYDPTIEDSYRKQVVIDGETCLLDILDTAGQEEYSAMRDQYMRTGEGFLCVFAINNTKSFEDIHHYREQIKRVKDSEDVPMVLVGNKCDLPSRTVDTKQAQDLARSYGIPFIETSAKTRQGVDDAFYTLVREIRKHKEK
Sequence of GST-tagged KRAS-G12D (2-169) (P01116 2-169 isoform P01116-2 G12D): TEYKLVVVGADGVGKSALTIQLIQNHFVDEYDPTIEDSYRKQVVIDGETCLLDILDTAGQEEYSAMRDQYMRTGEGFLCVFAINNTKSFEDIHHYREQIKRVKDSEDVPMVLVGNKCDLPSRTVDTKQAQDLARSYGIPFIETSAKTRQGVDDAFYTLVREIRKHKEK

As for `N#Cc1c(N)sc2c1C1(CN(c3nc(OC[C@@]45CCCN4C[C@H](F)C5)nc(N4C5CCC4CC(=O)C5)n3)C1)SC2` [Compound 273, 2-amino-1′-[4-[[(2R,8S)-2-fluoro-1,2,3,5,6,7-hexahydropyrrolizin-8-yl]methoxy]-6-(3-oxo-8-azabicyclo[3.2.1]octan-8-yl)-1,3,5-triazin-2-yl]spiro[6H-thieno[3,4-b]thiophene-4,3′-azetidine]-3-carbonitrile], the concentration for half-maximal inhibition (IC50) lay in the range of 100 to 1000 nM in assay [1] and 10 to 100 nM in assay [2].

For `CCN(c1nc(OCC2(CN(C)C)CC2(F)F)nc(N2CC3(C2)SCc2sc(N)c(C#N)c23)n1)[C@H](C)c1cccnc1N` (stereo partly drawn) [Compound 198, 2-amino-1′-[4-[[(1R)-1-(2-amino-3-pyridyl)ethyl]-ethyl-amino]-6-[[1-[(dimethylamino)methyl]-2,2-difluoro-cyclopropyl]methoxy]-1,3,5-triazin-2-yl]spiro[6H-thieno[3,4-b]thiophene-4,3′-azetidine]-3-carbonitrile], the IC50 in assay [1] and in assay [2] was below 10 nM each time.

Consider `CN(Cc1cc(C(N)=O)nn1C)c1nc(OC[C@@]23CCCN2C[C@H](F)C3)nc(N2CC3(CCc4sc(N)c(C#N)c43)C2)n1` [Compound 135, 5-[[[4-(2-amino-3-cyano-spiro[5,6-dihydrocyclopenta[b]thiophene-4,3′-azetidine]-1′-yl)-6-[[(2R,8S)-2-fluoro-1,2,3,5,6,7-hexahydropyrrolizin-8-yl]methoxy]-1,3,5-triazin-2-yl]-methyl-amino]methyl]-1-methyl-pyrazole-3-carboxamide], for which the IC50 in assay [1] and in assay [2] was 100 to 1000 nM each time.

On to `CC(c1cccnc1N)N(CCO)c1nc(OC[C@@]23CCCN2C[C@H](F)C3)nc(N2CC3(CCc4sc(N)c(C#N)c43)C2)n1` (stereo partly drawn) [Compound 110, 2-amino-1′-[4-[1-(2-amino-3-pyridyl)ethyl-(2-hydroxyethyl)amino]-6-[[(2R,8S)-2-fluoro-1,2,3,5,6,7-hexahydropyrrolizin-8-yl]methoxy]-1,3,5-triazin-2-yl]spiro[5,6-dihydrocyclopenta[b]thiophene-4,3′-azetidine]-3-carbonitrile], for which the half-maximal inhibitory concentration (IC50) in assay [1] and in assay [2] was below 10 nM each time.

With `N#Cc1c(N)sc2c1C1(CC2)CN(c2nc(OCC3(O)CC3)nc(OC[C@@]34CCCN3C[C@H](F)C4)n2)C1` [Compound 76, 2-amino-1′-[4-[[(2R,8S)-2-fluoro-1,2,3,5,6,7-hexahydropyrrolizin-8-yl]methoxy]-6-[(1-hydroxycyclopropyl)methoxy]-1,3,5-triazin-2-yl]spiro[5,6-dihydrocyclopenta[b]thiophene-4,3′-azetidine]-3-carbonitrile], the IC50 is 1000 to 20000 nM in assay [1] and 100 to 1000 nM in assay [2].

For the compound `N#Cc1c(N)sc2c1C1(CC2)CN(c2nc(OC[C@@]34CCCN3C[C@H](F)C4)nc(N3CCC4CC4(CO)C3)n2)C1` (stereo partly drawn) [Compound 41, 2-amino-1′-[4-[[(2R,8S)-2-fluoro-1,2,3,5,6,7-hexahydropyrrolizin-8-yl]methoxy]-6-[1-(hydroxymethyl)-3-azabicyclo[4.1.0]heptan-3-yl]-1,3,5-triazin-2-yl]spiro[5,6-dihydrocyclopenta[b]thiophene-4,3′-azetidine]-3-carbonitrile], the 50% inhibitory concentration (IC50) in assay [1] is 1000 to 20000 nM; in assay [2], 100 to 1000 nM.

With `CN(c1nc(OC[C@@]23CCCN2C[C@H](F)C3)nc(N2CC3(CCc4sc(N)c(C#N)c43)C2)n1)[C@@H]1COC[C@H]1O` (racemic) [Compound 90, 2-amino-1′-[4-[[(2R,8S)-2-fluoro-1,2,3,5,6,7-hexahydropyrrolizin-8-yl]methoxy]-6-[[rac-(3R,4S)-4-hydroxytetrahydrofuran-3-yl]-methyl-amino]-1,3,5-triazin-2-yl]spiro[5,6-dihydrocyclopenta[b]thiophene-4,3′-azetidine]-3-carbonitrile], the IC50 in assay [1] and in assay [2] was 100 to 1000 nM throughout.

Take `C[C@H](c1ccc(P(C)(C)=O)cc1)N(C)c1nc(OC[C@@]23CCCN2C[C@H](F)C3)nc(N2CC3(C2)SCc2sc(N)c(C#N)c23)n1` [Compound 229, 2′-amino-1-(4-(((R)-1-(4-(dimethylphosphoryl)phenyl)ethyl)(methyl)amino)-6-(((2R,7aS)-2-fluorotetrahydro-1H-pyrrolizin-7a(5H)-yl)methoxy)-1,3,5-triazin-2-yl)-6′H-spiro[azetidine-3,4′-thieno[3,4-b]thiophene]-3′-carbonitrile]: the IC50 in assay [1] and in assay [2] was 1000 to 20000 nM each time.

In the case of `N#Cc1c(N)sc2c1C1(CC2)CN(c2nc(OCC3(CN4CCOCC4)CC3)nc(OC3COCC3O)n2)C1` (racemic) [Compound 77, 2-amino-1′-[4-[rac-(3S,4S)-4-hydroxytetrahydrofuran-3-yl]oxy-6-[[1-(morpholinomethyl)cyclopropyl]methoxy]-1,3,5-triazin-2-yl]spiro[5,6-dihydrocyclopenta[b]thiophene-4,3′-azetidine]-3-carbonitrile; 2,2,2-trifluoroacetic acid], the IC50 is 1000 to 20000 nM in assay [1] and 100 to 1000 nM in assay [2].

Turning to `N#Cc1c(N)sc2c1C1(CC2)CN(c2nc(OC[C@@]34CCCN3C[C@H](F)C4)nc(OC3CCOC3)n2)C1` (stereo partly drawn) [Compound 78, 2-amino-1′-[4-[[(2R,8S)-2-fluoro-1,2,3,5,6,7-hexahydropyrrolizin-8-yl]methoxy]-6-tetrahydrofuran-3-yloxy-1,3,5-triazin-2-yl]spiro[5,6-dihydrocyclopenta[b]thiophene-4,3′-azetidine]-3-carbonitrile; formic acid], the results for the 50% inhibitory concentration (IC50) in assay [1] and in assay [2] were 1000 to 20000 nM and 100 to 1000 nM, respectively.

As for `N#Cc1c(N)sc2c1C1(CC2)CN(c2nc(OC[C@@]34CCCN3C[C@H](F)C4)nc(N3CCSc4ncccc4C3)n2)C1` [Compound 99, 2-amino-1′-[4-(3,5-dihydro-2H-pyrido[3,2-f][1,4]thiazepin-4-yl)-6-[[(2R,8S)-2-fluoro-1,2,3,5,6,7-hexahydropyrrolizin-8-yl]methoxy]-1,3,5-triazin-2-yl]spiro[5,6-dihydrocyclopenta[b]thiophene-4,3′-azetidine]-3-carbonitrile], the half-inhibitory concentration (IC50) in assay [1] was in the range of 1000 to 20000 nM; in assay [2], 100 to 1000 nM.

For `C[C@H](c1cccnc1N)N(CC(F)F)c1nc(OC[C@@H]2C[C@@H](F)CN2C)nc(N2CC3(C2)SCc2sc(N)c(C#N)c23)n1` [Compound 197, 2′-amino-1-(4-(((R)-1-(2-aminopyridin-3-yl)ethyl)(2,2-difluoroethyl)amino)-6-(((2S,4R)-4-fluoro-1-methylpyrrolidin-2-yl)methoxy)-1,3,5-triazin-2-yl)-6′H-spiro[azetidine-3,4′-thieno[3,4-b]thiophene]-3′-carbonitrile], the concentration for half-maximal inhibition (IC50) in assay [1] and in assay [2] was below 10 nM throughout.

As for `CN(Cc1c(O)ccnc1N)c1nc(OC[C@@]23CCCN2C[C@H](F)C3)nc(N2CC3(C2)SCc2sc(N)c(C#N)c23)n1` [Compound 182, 2-amino-1′-[4-[(2-amino-4-hydroxy-3-pyridyl)methyl-methyl-amino]-6-[[(2R,8S)-2-fluoro-1,2,3,5,6,7-hexahydropyrrolizin-8-yl]methoxy]-1,3,5-triazin-2-yl]spiro[6H-thieno[2,3-c]thiophene-4,3′-azetidine]-3-carbonitrile], the half-maximal inhibitory concentration (IC50) in assay [1] and in assay [2] was 10 to 100 nM in each case.

For `N#Cc1c(N)sc2c1C1(CN(c3nc(OC[C@@]45CCCN4C[C@H](F)C5)nc(N(CC(N)=O)C4(C#N)CC4)n3)C1)SC2` [Compound 266, 2-[[4-(2-amino-3-cyano-spiro[6H-thieno[3,4-b]thiophene-4,3′-azetidine]-1′-yl)-6-[[(2R,8S)-2-fluoro-1,2,3,5,6,7-hexahydropyrrolizin-8-yl]methoxy]-1,3,5-triazin-2-yl]-(1-cyanocyclopropyl)amino]acetamide], the IC50 in assay [1] and in assay [2] was below 10 nM in each case.

`C[C@]1(O)C[C@H](O)CN(c2nc(OC[C@@]34CCCN3C[C@H](F)C4)nc(N3CC4(CCc5sc(N)c(C#N)c54)C3)n2)C1` [Compound 75, 2-amino-1′-[4-[(3S,5S)-3,5-dihydroxy-3-methyl-1-piperidyl]-6-[[(2R,8S)-2-fluoro-1,2,3,5,6,7-hexahydropyrrolizin-8-yl]methoxy]-1,3,5-triazin-2-yl]spiro[5,6-dihydrocyclopenta[b]thiophene-4,3′-azetidine]-3-carbonitrile]: the 50% inhibitory concentration (IC50) in assay [1] lay in the range of 1000 to 20000 nM; in assay [2], 100 to 1000 nM.

`CCN(c1nc(OC[C@@]23CCCN2C[C@H](F)C3)nc(N2CC3(C2)c2c(sc(N)c2C#N)CN3CC(F)F)n1)[C@H](C)c1cccnc1N` [Compound 227, 2-amino-1′-[4-[[(1R)-1-(2-amino-3-pyridyl)ethyl]-ethyl-amino]-6-[[(2R,8S)-2-fluoro-1,2,3,5,6,7-hexahydropyrrolizin-8-yl]methoxy]-1,3,5-triazin-2-yl]-5-(2,2-difluoroethyl)spiro[6H-thieno[2,3-c]pyrrole-4,3′-azetidine]-3-carbonitrile]: the figures for the IC50 in assay [1] and in assay [2] were 100 to 1000 nM and 10 to 100 nM, respectively.

`CCN(c1nc(OCC2(CN(C)C)CCCN2)nc(N2CC3(C2)SCc2sc(N)c(C#N)c23)n1)[C@H](C)c1cccnc1N` (stereo partly drawn) [Compound 225, 2-amino-1′-[4-[[(1R)-1-(2-amino-3-pyridyl)ethyl]-ethyl-amino]-6-[[2-[(dimethylamino)methyl]pyrrolidin-2-yl]methoxy]-1,3,5-triazin-2-yl]spiro[6H-thieno[3,4-b]thiophene-4,3′-azetidine]-3-carbonitrile]: the results for the concentration for half-maximal inhibition (IC50) in assay [1] and in assay [2] were 10 to 100 nM and below 10 nM, respectively.
